Assay results as given in patent US11040028B2, “Penicinotam derivative, preparation method and use thereof” (OCEAN UNIVERSITY OF CHINA, priority 2017, dated 2021).

Experiments:
[1] = system: human embryonic lung fibroblast IMR-90; assay: Anti-fibrosis activity test: inhibition of proliferation of human embryonic lung fibroblast IMR-90 (CCK-8); assay type: cell-based; conditions: human embryonic lung fibroblast IMR-90, CCK-8, 48 hours
Summary of the method: (§1)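 Cells seeded at 2×10^4 cells/mL, adhered 24 h, then exposed to compound concentrations in triplicate for 48 h at 37° C, 5% CO2. CCK-8 added for 2 h, absorbance at 450 nm; inhibition = (1−Ai/Ao)×100% versus blank control, IC50 calculated.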

[2] = system: human fibrosarcoma cells HT-1080; assay: Anti-fibrosis activity test: inhibition of proliferation of human fibrosarcoma cells HT-1080 (CCK-8); assay type: cell-based; conditions: Homo sapiens, HT-1080, 48 h, human fibrosarcoma cells HT-1080, CCK-8, 48 hours
Summary of the method: as §1

[3] = pirfenidone, stated as known property; cited from earlier work
[4] = system: human hepatic stellate cells LX-2; assay: Anti-fibrosis activity test: inhibition of proliferation of human hepatic stellate cells LX-2 (CCK-8); assay type: cell-based; conditions: Homo sapiens, 48 h, human hepatic stellate cells LX-2, CCK-8, 48 hours
Summary of the method: as §1

[5] = system: human lung fibroblasts HFL1; assay: Anti-fibrosis activity test: inhibition of proliferation of human lung fibroblasts HFL1 (CCK-8); assay type: cell-based; conditions: Homo sapiens, HFL1, 48 h, human lung fibroblasts HFL1, CCK-8, 48 hours
Summary of the method: as §1

BHK-21 cells = assay: Anti-fibrosis activity test: inhibition of BHK-21 cell proliferation (CCK-8); assay type: cell-based; conditions: Mesocricetus auratus, BHK-21, 48 h, CCK-8, 48 hours after administration
Summary of the method: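 Cells seeded at 2×10^4 cells/mL, allowed to adhere 24 hours, then exposed to graded compound concentrations in triplicate for 48 hours at 37° C, 5% CO2. CCK-8 added for 2 hours, absorbance read at 450 nm; inhibition versus blank control used to derive IC50. Pirfenidone served as positive control.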

[6] = system: human dermal fibroblasts CCC-ESF-1; assay: Anti-fibrosis activity test: inhibition of proliferation of human dermal fibroblasts CCC-ESF-1 (CCK-8); assay type: cell-based; conditions: Fibroblast; human dermal fibroblasts CCC-ESF-1, CCK-8, 48 hours
Summary of the method: as §1

[7] = system: cardiac fibroblast RAT-iCell-C002; assay: Anti-fibrosis activity test: inhibition of proliferation of cardiac fibroblast RAT-iCell-C002 (CCK-8); assay type: cell-based; conditions: Cardiac fibroblast, 48 h, cardiac fibroblast RAT-iCell-C002, CCK-8, 48 hours
Summary of the method: as §1

[8] = system: mouse macrophages (RAW264.7); assay: Lipopolysaccharide-induced NO secretion in macrophages (Griess); assay type: cell-based; conditions: Mus musculus, RAW264.7, 24 h, RAW264.7, LPS 1 μg/ml, a/b isomers given as first/second symbol, read-out: IC50 (μM), inhibition of lipopolysaccharide-induced NO secretion in macrophages
Summary of the method: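 RAW264.7 macrophages in DMEM with 10% FBS received test samples at several concentrations and were stimulated with 1 μg/ml LPS for 24 h. NO in the supernatant was measured with the Griess reagent at 548 nm, […].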

NF-κB = assay: Immunological activity test: inhibition of NF-κB activity; assay type: cell-based; conditions: initial concentration of 30 μM; a/b isomers given as first/second symbol; read-out: IC50 (μM), inhibitory activity against NF-κB
Summary of the method: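 NF-κB inhibition was tested at an initial 30 μM compound concentration, with parthenolide as positive control, and IC50 values were determined from follow-up analysis.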

| IC50 [2] | IC50 [8] | IC50 (NF-κB) | SMILES | IC50 [1] | phototoxic reactions [3] | IC50 [4] | IC50 [5] | IC50 (BHK-21 cells) | IC50 [6] | IC50 [7] |
| --- | --- | --- | --- | --- | --- | --- | --- | --- | --- | --- |
| 20 to 100 mM |  |  | Cc1ccc(=O)n(-c2ccccc2)c1 [pirfenidone, reference compound] | 20 to 100 mM | phototxic reactions, which are produced by pirfenidone | 20 to 100 mM | 5 to 20 mM | 20 to 100 mM | 20 to 100 mM | 20 to 100 mM |
| 0.05 to 5 mM | 1 to 10 µM | 0.1 to 1 µM | O=C1c2c(n(Cc3ccc(I)cc3)c3ccccc3c2=O)-c2cccn21 [Compound 575a, 4-(4-Iodobenzyl)-9H-pyrrolizino[1,2-b]quinoline-9,10(4H)-dione] | 0.05 to 5 mM |  | 0.05 to 5 mM | 0.05 to 5 mM | < 0.05 mM | 0.05 to 5 mM | 0.05 to 5 mM |
| 0.05 to 5 mM | 1 to 10 µM | 1 to 10 µM | N#Cc1ccc(Cn2c3c(c(=O)c4ccccc42)C(=O)n2cccc2-3)cc1 [Compound 590a, 4-((9,10-Dioxo-9H-pyrrolizino[1,2-b]quinolin-4(10H)-yl)methyl)benzonitrile] | 0.05 to 5 mM |  | 0.05 to 5 mM | 0.05 to 5 mM | 0.05 to 5 mM | 0.05 to 5 mM | 0.05 to 5 mM |
| 0.05 to 5 mM | 10 to 50 µM | 1 to 10 µM | O=C1c2c(nc3ccccc3c2OCc2ccccc2Br)-c2cccn21 [Compound 612b, 9-((2-bromobenzyl)oxy)-10H-pyrrolizino[1,2-b]quinolin-10-one] | 0.05 to 5 mM |  | 0.05 to 5 mM | 0.05 to 5 mM | 0.05 to 5 mM | 0.05 to 5 mM | 0.05 to 5 mM |
| 0.05 to 5 mM | 0.1 to 1 µM | 10 to 50 µM | O=C1c2c(n(Cc3cccc(Cl)c3)c3cccc(Cl)c3c2=O)-c2cccn21 [Compound 478a, 8-Chloro-4-(3-chlorobenzyl)-9H-pyrrolizino[1,2-b]quinoline-9,10(4H)-dione] | 0.05 to 5 mM |  | 0.05 to 5 mM | 0.05 to 5 mM | 0.05 to 5 mM | 0.05 to 5 mM | 0.05 to 5 mM |
| 0.05 to 5 mM | 1 to 10 µM | 1 to 10 µM | O=C(Cn1c2c(c(=O)c3ccccc31)C(=O)n1cccc1-2)c1ccc(-c2ccccc2)cc1 [Compound 50a, 4-(2-([1,1′-Biphenyl]-4-yl)-2-oxoethyl)-9H-pyrrolizino[1,2-b]quinoline-9,10(4H)-dione] | 5 to 20 mM |  | 5 to 20 mM | 0.05 to 5 mM | 0.05 to 5 mM | 0.05 to 5 mM | 5 to 20 mM |
